Reference: patent publication EP2047849A1 (KTB Tumorforschungsgesellschaft mbH, priority 2007, dated 2009)
Substitutions are numbered along the chain they refer to.

Experiments:
Assay in all cases: 33PanQinase Activity Assay (in vitro protein kinase activity assay)
Type in all cases: biochemical
Conditions in all cases: recombinant purified kinase, 1 µM [γ-33P]-ATP
[1] = biological target: T1, CHK2 (Homo sapiens, UniProt O96017)
T1 construct: made in house; host or cells: Sf9 insect cells (baculovirus)
Procedure: (§1) Inhibition of protein kinases by compounds was measured in proprietary protein kinase activity assay (^33PanQinase® Activity Assay) using recombinant purified protein kinases. All protein kinases were expressed in Sf9 insect cells as recombinant GST-fusion proteins or His-tagged proteins by means of the baculovirus expression system. All kinases were produced from human cDNAs. Kinases were purified by affinity chromatography using either GSH-agarose (Sigma) or Ni-NTH-agarose (Qiagen). The purity of the protein kinases was examined by SDS-PAGE/Coomassie staining. Activity was measured by determination of the incorporation of radio labelled phosphate into a substrate. The reaction cocktails for all enzymes contained 60 mM HEPES-NaOH, 10 mM Tris/HCl, pH 7.5, 20 mM NaCl, 3 mM MgCl2, 3 mM MnCl2, 3 µM Na-orthovanadate, 2 mM DTT, 4% glycerol, 1 µM [γ-^33P]-ATP (approx. 6 x 10^5 cpm per well), protein kinase , and substrate. Table 1: Protein kinases inhibited with high potency in vitro by compound PQ-012, PQ-013, PQ-014, PQ-016, PQ-041, PQ-042.

[2] = biological target: T2, FAK (Homo sapiens, UniProt Q05397)
T2 construct: made in house; host or cells: Sf9 insect cells (baculovirus)
Procedure: as §1

[3] = biological target: T3, FLT3 D835Y (Homo sapiens, UniProt P36888, D835Y)
T3 construct: made in house; host or cells: Sf9 insect cells (baculovirus)
T3 sequence (P36888 27-993 D835Y): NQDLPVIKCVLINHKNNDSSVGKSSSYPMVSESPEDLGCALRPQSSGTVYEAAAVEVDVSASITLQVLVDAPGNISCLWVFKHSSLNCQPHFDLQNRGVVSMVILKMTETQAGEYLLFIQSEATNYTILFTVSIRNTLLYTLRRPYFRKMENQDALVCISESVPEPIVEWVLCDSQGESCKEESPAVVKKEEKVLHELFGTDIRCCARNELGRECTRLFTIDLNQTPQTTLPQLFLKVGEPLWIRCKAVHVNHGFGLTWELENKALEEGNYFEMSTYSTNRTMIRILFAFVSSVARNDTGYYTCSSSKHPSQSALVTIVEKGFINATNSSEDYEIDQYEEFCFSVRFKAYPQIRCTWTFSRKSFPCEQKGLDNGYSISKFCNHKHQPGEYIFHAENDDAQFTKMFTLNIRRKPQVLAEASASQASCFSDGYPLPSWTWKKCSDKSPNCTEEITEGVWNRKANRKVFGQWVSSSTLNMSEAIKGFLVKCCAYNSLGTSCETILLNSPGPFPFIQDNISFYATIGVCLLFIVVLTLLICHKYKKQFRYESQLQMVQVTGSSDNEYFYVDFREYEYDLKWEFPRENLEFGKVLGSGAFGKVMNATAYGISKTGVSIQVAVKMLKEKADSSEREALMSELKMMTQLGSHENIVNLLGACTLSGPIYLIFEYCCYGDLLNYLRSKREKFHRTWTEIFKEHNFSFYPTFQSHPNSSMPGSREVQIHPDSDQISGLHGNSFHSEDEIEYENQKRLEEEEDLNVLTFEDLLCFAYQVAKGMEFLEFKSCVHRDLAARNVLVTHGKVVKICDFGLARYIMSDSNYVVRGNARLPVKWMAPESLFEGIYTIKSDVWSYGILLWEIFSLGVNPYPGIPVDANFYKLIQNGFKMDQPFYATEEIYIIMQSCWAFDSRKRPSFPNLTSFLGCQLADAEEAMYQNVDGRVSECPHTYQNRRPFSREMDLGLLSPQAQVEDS
Procedure: as §1

[4] = biological target: T4, FLT3 wt (Homo sapiens, UniProt P36888)
T4 construct: made in house; host or cells: Sf9 insect cells (baculovirus)
T4 sequence (P36888 27-993): T3 sequence (P36888 27-993 D835Y) with Y809D
Procedure: as §1

[5] = biological target: T5, PDGFR-alpha (Homo sapiens, UniProt P16234)
T5 construct: made in house; host or cells: Sf9 insect cells (baculovirus)
Procedure: as §1

[6] = biological target: T6, PDGFR-beta (Homo sapiens, UniProt P09619)
T6 construct: made in house; host or cells: Sf9 insect cells (baculovirus)
Procedure: as §1

[7] = biological target: T7, Aurora B (Homo sapiens, UniProt Q96GD4)
T7 construct: made in house; host or cells: Sf9 insect cells (baculovirus)
Procedure: as §1

[8] = biological target: T8, MAP4K4 (Homo sapiens, UniProt O95819)
T8 construct: made in house; host or cells: Sf9 insect cells (baculovirus)
Procedure: as §1

[9] = biological target: T9, PLK4 (Homo sapiens, UniProt O00444)
T9 construct: made in house; host or cells: Sf9 insect cells (baculovirus)
T9 sequence (O00444 1-970): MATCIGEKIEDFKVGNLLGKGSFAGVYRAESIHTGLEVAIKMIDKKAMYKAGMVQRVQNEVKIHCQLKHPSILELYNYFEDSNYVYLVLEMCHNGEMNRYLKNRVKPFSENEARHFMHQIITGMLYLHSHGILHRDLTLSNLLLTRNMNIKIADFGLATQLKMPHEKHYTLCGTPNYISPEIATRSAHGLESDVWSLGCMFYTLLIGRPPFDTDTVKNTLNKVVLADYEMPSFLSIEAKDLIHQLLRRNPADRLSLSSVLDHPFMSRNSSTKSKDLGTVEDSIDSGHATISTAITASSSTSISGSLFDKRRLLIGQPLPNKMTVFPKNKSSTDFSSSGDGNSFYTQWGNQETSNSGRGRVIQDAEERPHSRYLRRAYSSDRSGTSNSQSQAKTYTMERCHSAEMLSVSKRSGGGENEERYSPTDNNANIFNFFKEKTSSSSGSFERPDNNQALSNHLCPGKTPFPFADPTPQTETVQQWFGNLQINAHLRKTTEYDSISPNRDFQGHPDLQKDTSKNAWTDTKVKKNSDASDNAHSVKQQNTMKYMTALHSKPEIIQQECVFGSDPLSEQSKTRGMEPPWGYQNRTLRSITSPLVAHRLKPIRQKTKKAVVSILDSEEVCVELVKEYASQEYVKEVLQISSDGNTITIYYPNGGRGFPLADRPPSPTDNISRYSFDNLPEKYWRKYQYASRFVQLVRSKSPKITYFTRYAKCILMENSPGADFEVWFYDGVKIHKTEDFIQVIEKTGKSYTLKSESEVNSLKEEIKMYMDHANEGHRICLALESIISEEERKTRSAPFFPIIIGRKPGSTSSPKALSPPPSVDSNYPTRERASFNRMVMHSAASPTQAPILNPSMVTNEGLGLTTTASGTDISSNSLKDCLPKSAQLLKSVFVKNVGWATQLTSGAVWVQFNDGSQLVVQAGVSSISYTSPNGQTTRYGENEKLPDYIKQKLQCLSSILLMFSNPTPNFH
Procedure: as §1

[10] = biological target: T10, PRKG2 (Homo sapiens, UniProt Q13237)
T10 construct: made in house; host or cells: Sf9 insect cells (baculovirus)
T10 sequence (Q13237 1-762): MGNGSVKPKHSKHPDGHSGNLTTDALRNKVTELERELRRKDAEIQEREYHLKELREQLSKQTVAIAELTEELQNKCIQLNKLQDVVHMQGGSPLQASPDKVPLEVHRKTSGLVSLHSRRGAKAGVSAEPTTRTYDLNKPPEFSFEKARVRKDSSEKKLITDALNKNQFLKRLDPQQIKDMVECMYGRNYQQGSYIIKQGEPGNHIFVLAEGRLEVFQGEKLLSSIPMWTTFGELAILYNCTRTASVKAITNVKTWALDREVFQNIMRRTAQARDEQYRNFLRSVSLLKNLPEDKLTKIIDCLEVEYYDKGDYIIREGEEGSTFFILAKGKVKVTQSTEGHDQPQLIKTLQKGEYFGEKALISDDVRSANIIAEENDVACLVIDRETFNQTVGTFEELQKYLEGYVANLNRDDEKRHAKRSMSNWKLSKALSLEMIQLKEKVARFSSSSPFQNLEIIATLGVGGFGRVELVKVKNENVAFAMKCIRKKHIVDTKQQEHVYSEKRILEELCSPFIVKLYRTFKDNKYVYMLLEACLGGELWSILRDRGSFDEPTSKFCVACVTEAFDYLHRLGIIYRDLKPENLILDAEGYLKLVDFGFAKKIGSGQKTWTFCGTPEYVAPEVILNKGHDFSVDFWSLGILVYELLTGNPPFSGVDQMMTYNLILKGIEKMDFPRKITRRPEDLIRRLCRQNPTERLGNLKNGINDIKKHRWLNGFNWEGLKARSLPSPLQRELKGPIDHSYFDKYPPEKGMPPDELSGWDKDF
Procedure: as §1

[11] = biological target: T11, RSK1 (Homo sapiens, UniProt Q15418)
T11 construct: made in house; host or cells: Sf9 insect cells (baculovirus)
Procedure: as §1

[12] = biological target: T12, RSK2 (Homo sapiens, UniProt P51812)
T12 construct: made in house; host or cells: Sf9 insect cells (baculovirus)
Procedure: as §1

[13] = biological target: T13, RSK3 (Homo sapiens, UniProt Q15349)
T13 construct: made in house; host or cells: Sf9 insect cells (baculovirus)
Procedure: as §1

[14] = biological target: T14, RSK4 (Homo sapiens, UniProt Q9UK32)
T14 construct: made in house; host or cells: Sf9 insect cells (baculovirus)
Procedure: as §1

T1 sequence (O96017 whole entry): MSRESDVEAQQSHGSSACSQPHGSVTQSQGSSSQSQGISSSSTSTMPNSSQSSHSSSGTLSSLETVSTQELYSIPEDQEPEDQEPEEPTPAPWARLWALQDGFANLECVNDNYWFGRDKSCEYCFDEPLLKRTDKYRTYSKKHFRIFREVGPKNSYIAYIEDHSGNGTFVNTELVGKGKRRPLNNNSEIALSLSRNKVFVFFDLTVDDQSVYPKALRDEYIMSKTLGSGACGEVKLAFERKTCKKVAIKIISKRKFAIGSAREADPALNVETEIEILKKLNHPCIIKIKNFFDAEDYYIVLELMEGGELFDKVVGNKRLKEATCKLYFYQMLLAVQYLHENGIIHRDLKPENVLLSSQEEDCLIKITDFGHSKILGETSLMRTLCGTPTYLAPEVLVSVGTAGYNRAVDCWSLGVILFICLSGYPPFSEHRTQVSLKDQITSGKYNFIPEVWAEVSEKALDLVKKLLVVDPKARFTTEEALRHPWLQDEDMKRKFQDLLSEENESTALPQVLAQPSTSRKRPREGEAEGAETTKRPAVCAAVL
T2 sequence (Q05397 whole entry): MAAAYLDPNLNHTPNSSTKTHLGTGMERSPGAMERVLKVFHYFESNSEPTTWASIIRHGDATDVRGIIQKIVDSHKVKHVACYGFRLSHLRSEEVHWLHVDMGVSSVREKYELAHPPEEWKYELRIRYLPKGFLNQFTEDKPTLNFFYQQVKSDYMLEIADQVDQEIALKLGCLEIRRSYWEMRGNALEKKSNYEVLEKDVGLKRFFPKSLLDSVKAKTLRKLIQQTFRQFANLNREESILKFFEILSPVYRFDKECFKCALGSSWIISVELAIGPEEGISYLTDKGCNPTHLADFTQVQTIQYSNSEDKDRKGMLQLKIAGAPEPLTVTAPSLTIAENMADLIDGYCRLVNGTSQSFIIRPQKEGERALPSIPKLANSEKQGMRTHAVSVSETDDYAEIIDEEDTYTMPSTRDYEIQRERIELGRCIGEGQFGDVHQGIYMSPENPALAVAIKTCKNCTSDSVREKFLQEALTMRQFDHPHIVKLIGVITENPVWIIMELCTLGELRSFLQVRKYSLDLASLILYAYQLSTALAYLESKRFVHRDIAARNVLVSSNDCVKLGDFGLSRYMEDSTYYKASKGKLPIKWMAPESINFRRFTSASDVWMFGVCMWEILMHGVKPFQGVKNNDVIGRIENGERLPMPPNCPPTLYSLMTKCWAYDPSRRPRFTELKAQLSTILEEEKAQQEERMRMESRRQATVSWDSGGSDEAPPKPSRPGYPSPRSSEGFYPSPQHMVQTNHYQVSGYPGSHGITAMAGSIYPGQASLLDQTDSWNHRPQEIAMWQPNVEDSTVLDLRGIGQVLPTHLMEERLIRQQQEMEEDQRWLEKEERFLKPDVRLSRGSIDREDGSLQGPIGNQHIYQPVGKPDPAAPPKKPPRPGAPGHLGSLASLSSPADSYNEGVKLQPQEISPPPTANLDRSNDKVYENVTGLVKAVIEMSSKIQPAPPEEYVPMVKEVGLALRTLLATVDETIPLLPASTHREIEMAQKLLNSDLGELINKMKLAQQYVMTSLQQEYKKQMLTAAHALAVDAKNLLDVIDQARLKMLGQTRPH
T6 sequence (P09619 33-1106): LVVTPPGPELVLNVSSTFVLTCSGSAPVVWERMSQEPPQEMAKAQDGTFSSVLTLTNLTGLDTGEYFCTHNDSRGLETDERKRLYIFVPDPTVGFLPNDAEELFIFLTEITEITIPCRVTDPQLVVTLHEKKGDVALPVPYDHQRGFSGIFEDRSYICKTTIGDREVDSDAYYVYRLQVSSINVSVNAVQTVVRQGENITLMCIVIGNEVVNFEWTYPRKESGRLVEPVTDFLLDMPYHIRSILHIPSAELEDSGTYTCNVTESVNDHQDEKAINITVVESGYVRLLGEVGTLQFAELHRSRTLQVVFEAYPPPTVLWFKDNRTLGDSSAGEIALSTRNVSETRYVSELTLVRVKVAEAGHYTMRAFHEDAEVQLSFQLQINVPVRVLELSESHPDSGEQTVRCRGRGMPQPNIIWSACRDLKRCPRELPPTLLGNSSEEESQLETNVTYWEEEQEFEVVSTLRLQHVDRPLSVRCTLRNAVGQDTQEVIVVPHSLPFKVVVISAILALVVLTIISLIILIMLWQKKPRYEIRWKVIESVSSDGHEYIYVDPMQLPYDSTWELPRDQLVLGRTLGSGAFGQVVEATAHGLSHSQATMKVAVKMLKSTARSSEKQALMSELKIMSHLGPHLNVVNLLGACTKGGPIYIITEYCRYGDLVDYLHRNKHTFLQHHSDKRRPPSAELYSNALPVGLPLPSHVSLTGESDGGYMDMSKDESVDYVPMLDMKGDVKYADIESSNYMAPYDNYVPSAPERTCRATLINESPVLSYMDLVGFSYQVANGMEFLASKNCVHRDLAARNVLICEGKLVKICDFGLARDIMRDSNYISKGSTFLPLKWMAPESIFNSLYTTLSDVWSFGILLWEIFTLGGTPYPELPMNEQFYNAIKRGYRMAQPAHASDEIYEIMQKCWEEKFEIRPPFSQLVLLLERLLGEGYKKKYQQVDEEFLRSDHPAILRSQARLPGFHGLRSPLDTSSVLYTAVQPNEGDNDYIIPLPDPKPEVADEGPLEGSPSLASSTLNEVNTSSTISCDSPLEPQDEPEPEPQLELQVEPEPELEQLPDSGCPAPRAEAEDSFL
T5 sequence (P16234 24-1089): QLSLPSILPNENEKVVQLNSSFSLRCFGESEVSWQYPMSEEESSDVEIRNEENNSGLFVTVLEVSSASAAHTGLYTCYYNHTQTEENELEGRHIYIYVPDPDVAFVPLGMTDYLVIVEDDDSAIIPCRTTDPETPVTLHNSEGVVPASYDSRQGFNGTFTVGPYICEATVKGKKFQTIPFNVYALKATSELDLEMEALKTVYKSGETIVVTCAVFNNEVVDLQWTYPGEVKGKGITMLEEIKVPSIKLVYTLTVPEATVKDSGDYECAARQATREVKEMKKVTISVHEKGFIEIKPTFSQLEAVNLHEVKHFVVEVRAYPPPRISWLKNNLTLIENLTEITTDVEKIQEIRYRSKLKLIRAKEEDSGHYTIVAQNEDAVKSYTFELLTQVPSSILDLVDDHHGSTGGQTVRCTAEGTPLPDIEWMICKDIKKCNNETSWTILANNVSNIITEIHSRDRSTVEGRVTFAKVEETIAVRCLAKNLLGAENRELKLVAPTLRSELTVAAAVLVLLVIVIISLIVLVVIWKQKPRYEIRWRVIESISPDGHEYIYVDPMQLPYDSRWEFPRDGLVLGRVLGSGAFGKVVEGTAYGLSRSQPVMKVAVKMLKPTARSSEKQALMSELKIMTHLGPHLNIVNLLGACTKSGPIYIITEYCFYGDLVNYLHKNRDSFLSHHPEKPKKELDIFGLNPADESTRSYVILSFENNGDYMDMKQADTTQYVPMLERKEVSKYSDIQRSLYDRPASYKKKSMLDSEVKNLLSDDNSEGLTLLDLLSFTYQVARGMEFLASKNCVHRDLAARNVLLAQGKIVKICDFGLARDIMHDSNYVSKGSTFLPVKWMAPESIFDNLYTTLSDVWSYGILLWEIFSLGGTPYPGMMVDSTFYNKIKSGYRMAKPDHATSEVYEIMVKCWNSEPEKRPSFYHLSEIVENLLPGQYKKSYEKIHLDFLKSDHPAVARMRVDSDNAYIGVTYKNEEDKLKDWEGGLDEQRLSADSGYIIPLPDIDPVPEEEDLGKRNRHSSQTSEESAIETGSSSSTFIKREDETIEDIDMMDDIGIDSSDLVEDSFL
T11 sequence (Q15418 whole entry): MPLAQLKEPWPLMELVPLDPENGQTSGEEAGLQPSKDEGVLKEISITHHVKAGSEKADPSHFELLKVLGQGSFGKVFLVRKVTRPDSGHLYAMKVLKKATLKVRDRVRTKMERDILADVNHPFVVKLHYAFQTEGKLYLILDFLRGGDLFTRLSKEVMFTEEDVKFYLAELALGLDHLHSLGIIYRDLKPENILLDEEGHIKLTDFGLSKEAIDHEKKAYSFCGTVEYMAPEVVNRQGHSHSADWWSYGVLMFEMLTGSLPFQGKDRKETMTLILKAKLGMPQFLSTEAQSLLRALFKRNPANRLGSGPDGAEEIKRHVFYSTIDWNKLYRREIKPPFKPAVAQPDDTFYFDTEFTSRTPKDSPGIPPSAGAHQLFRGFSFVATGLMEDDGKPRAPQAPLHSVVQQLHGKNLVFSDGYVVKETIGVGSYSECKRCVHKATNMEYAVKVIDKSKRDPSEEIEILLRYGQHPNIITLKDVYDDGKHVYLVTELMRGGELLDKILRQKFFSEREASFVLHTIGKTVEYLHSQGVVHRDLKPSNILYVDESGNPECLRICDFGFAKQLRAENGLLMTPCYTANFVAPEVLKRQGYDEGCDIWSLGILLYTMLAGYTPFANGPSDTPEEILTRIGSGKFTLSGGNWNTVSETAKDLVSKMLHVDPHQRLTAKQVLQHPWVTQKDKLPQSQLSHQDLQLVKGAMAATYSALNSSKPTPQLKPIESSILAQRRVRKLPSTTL
T7 sequence (Q96GD4 whole entry): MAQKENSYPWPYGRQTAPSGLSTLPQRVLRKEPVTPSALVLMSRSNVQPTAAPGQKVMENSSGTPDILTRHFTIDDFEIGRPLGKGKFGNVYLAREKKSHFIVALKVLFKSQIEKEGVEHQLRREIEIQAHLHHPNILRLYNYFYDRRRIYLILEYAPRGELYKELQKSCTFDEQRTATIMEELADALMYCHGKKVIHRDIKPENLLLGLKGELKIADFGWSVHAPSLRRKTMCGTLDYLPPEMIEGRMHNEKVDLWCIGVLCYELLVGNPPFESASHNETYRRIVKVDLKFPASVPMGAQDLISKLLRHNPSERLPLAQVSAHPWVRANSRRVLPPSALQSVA

IC50 [7] [nM]	IC50 [8] [nM]	IC50 [9] [nM]	IC50 [10] [nM]	IC50 [11] [nM]	IC50 [12] [nM]	IC50 [13] [nM]	IC50 [14] [nM]	Compound	IC50 [1] [nM]	IC50 [2] [nM]	IC50 [3] [nM]	IC50 [4] [nM]	IC50 [5] [nM]	IC50 [6] [nM]
								Cn1c2ccccc2c2c3c(c4c5ccccc5[nH]c4c21)C(=O)NC3=O [PQ-042, 6,7,12,13-Tetrahydro-12-methyl-5,7 dioxo-5H-indolo [2,3-a] pyrrolo [3,4-c]-carbazole]	> 10000	> 10000	68	380	> 10000	> 10000
								NC(=O)CCn1c2ccccc2c2c3c(c4c5ccccc5[nH]c4c21)C(=O)NC3=O [PQ-041, 12-(2-Carbamidoethyl)-6,7,12,13-tetrahydro-5,1 dioxo-5H-indolo[2,3-a] pyrrolo [3,4-c]-carbazole]	740	2400	3.9	5.6	130	150
210	35	180	67	23	430	170	78	COc1ccc2[nH]c3c(c4c(c5c6cc(OC)ccc6n(C)c35)C(=O)NC4=O)c2c1 [PQ-013, 6,7,12,13-Tetrahydro-3,9-dimethoxy-12-methyl-5,7 dioxo-5H-indolo [2,3-a] pyrrolo [3,4-c]-carbazole]	40	36000	< 3	4.6	10	19
								CN(C)CCCn1c2ccc(O)cc2c2c3c(c4c5cc(O)ccc5n(C)c4c21)C(=O)NC3=O [PQ-012, 12-(3-Dimethylaminopropyl)-6,7,12,13-tetrahydro-3,9-dihydroxy-12-methyl-5,7 dioxo-5H-indolo[2,3-a] pyrrolo [3,4-c]-carbazole]	23	14	< 3	< 3	< 3	< 3
								CN(C)CC(O)Cn1c2ccc(O)cc2c2c3c(c4c5cc(O)ccc5n(C)c4c21)C(=O)NC3=O (racemic)	22000	1000	64	110	2000	700
								COc1ccc2c(c1)c1c3c(c4c5ccccc5n(C)c4c1n2CCC#N)C(=O)NC3=O [PQ-014, 13-(2-Cyanoethyl)-6,7,12,13-tetrahydro-3-methoxy-12-methyl-5,7 dioxo-5H-indolo[2,3-a] pyrrolo [3,4-c]-carbazole]	2100	1200	3.5	4.6	110	130
